{
  "source": "patent US20130315903A1",
  "about": "“ARYLSULFONAMIDE DERIVATIVES FOR THE PREVENTION OR TREATMENT OF SPECIFIC OPHTHALMOLOGIC DISORDERS” (FOVEA PHARMACEUTICALS, priority 2010, published 2013)",
  "key": {"[1]": {"test_system": "leukocyte adhesion to the retinal vasculature", "test": "Leukocyte adhesion to the retinal vasculature (leukostasis) of streptozotocin-diabetic Wistar rats", "type": "in vivo, rat", "details": "1% phosphate eye drop twice-a-day for 7 days, P<0.05", "source_text": "The effect of compound n° 49 phosphate on leukocyte adhesion to the retinal vasculature of streptozotocin-diabetic Wistar rats was also investigated using the same protocol of administration of compound n° 49 phosphate (1% eye drop twice-a-day for 7 days)."}, "[2]": {"test_system": "retina of diabetic Wistar rats (B1R, B2R, i-NOS, e-NOS, COX-2, ICAM-1, VEGF-R2, VEGF-a, IL-1β, HIF-1α mRNA)", "test": "mRNA expression of cytokines, vasoactive mediators and growth factors in retina of diabetic Wistar rats", "type": "in vivo, rat", "details": "1% eye drops 7 days", "source_text": "In order to explore molecular pathways involved into reduction of retinal vascular permeability by compound n° 49 phosphate in diabetic rats, expression of mRNA of cytokines, vasoactive mediators and growth factors was quantified in retina of control and diabetic Wistar rats treated or not with 1% compound n° 49 phosphate eye drops for 7 days. Expression of mRNA of B1R, B2R, i-NOS, e-NOS, COX-2, ICAM-1, VEGF-R2, VEGF-a, IL-1β and HIF-1α was increased in diabetic rat retina compared to control by 7.5-fold (P<0.05), 5.5, 15- (P<0.01), 6.5-, 8- (P<0.05), 8- , 5- (P<0.05), 12-, 6.5- (P<0.01) and 7-fold (P<0.05), respectively. Expression of TNF-α mRNA remained unchanged."}, "[3]": {"test_system": "retinal vascular permeability in streptozotocin-diabetic Brown-Norway rats", "test": "Retinal vascular permeability (Evans Blue dye) in streptozotocin-diabetic Brown-Norway rats, eye drops", "type": "in vivo, rat", "experimental": "Male Brown-Norway or Wistar rats were made diabetic by […] injection of 65 mg/kg intraperitoneal streptozotocin. Rats with a glycemia <350 mg/dl were discarded from the study. Seven days later, Brown-Norway rats were treated twice daily for 7 days with a single eye drop (10 μl) containing 0.1, 0.3, 1 and 3% phosphate salt of compound n° 49 or its vehicle (Saline Solution). Wistar rats were treated over the same period (from day 7 for 7 days) with a single eye drop (10 μl) containing 0.3 and 1% fumarate salt of compound n° 49 or its vehicle (Saline Solution). On day 15, retinal vascular leakage was determined by measurement of retinal content of Evans Blue dye.\nMore specifically, FIG. 1A is the dose-response of compound n° 49 instilled twice a day for 7 days as eye drops (0.1 to 3%) on retinal vascular leakage in streptozotocin-diabetic Brown-Norway rats. Recombinant tissue kallikrein binding protein (rKBP) was used as a reference drug and was given intravitreally 48 hours before vascular leakage measurement. Values are means ±standard error mean of 12 eyes/group (6 rats). *** means that P<0.001in a Student's t-test.\nThe route by which the phosphate salt of compound n° 49 reaches the retina following topical instillation was investigated to determine whether it is mainly by systemic circulation or by the trans- and/or peri-ocular pathway. Diabetic Brown-Norway rats were treated with 3% compound n° 49 phosphate in a single eye for 7 days or subcutaneously with matching daily dosage (0.6 mg/rat). […] In addition, a daily subcutaneous administration of 0.6 mg compound n° 49 phosphate rat had no effect on retinal vascular permeability."}, "[4]": {"test_system": "retina of diabetic Wistar rats (B1R, B2R, i-NOS, e-NOS, COX-2, ICAM-1, VEGF-R2, VEGF-a, IL-1β, HIF-1α mRNA)", "test": "mRNA expression of cytokines, vasoactive mediators and growth factors in retina of diabetic Wistar rats", "type": "in vivo, rat", "details": "1% eye drops 7 days", "remark": "listed apart in the source"}, "[5]": {"test_system": "retinal vascular leakage in STZ diabetic Brown-Norway rats", "details": "intravitreal route, positive reference drug; cited from earlier work"}},
  "note": "Values joined by “and” are separate entries in the source; they are usually repeats but may differ in a detail not shown here. Identical values can stand only once.",
  "data": [
    {"molecule": "COc1cc(C)c(S(=O)(=O)N(C)CCOCC(=O)N(C)Cc2ccc(C3=NCCN3)cc2)c(C)c1", "note": "[compound n° 49 phosphate]", "values": [
      {"measurement": "leukostasis in retinal vessels of diabetic rats", "setting": "[1]", "result": "significantly blunted"},
      {"measurement": "mRNA expression of B1R in retina", "setting": "[2]", "result": "down-regulated to control level"},
      {"measurement": "mRNA expression of B2R in retina", "setting": "[2]", "result": "down-regulated to control level"},
      {"measurement": "mRNA expression of COX-2 in retina", "setting": "[2]", "result": "down-regulated to control level"},
      {"measurement": "mRNA expression of HIF-1α in retina", "setting": "[2]", "result": "down-regulated to control level"},
      {"measurement": "mRNA expression of ICAM-1 in retina", "setting": "[2]", "result": "down-regulated to control level"},
      {"measurement": "mRNA expression of VEGF-A in retina (in list down-regulated to control level)", "setting": "[2]", "result": "down-regulated to control level"},
      {"measurement": "mRNA expression of e-NOS in retina", "setting": "[2]", "result": "down-regulated to control level"},
      {"measurement": "mRNA expression of i-NOS in retina", "setting": "[2]", "result": "down-regulated to control level"},
      {"measurement": "reduction of expression of VEGF-A mRNA in retina", "setting": "[2]", "result": 50, "unit": "%"},
      {"measurement": "reduction of retinal vascular permeability, treated eye", "setting": "[3]; 3% phosphate in a single eye for 7 days, diabetic Brown-Norway rats, P<0.001", "result": 37, "unit": "%"},
      {"measurement": "reduction of retinal oedema, maximum", "setting": "[3]; phosphate salt, eye drop 0.1-3% twice daily for 7 days, dose-dependent, diabetic Brown-Norway rats", "result": 55, "unit": "%"},
      {"measurement": "mRNA expression of IL-1β in retina", "setting": "[4]", "result": "down-regulated to control level"}
    ]},
    {"molecule": "COc1cc(C)c(S(=O)(=O)N(C)CCOCC(=O)N(C)Cc2ccc(C3=NCCN3)cc2)c(C)c1", "note": "[compound n° 49]", "values": [
      {"measurement": "reduction of retinal edema, maximum", "setting": "[3]; 1% eye drops, two separate preliminary studies (data not shown), strain not stated", "result": "58% and 63%"}
    ]},
    {"molecule": "rKBP: Recombinant tissue kallikrein binding protein, reference drug given intravitreally (protein, UniProt P29622 21-427, looked up) Kallistatin: QLHVEHDGESCSNSSHQQILETGEGSPSLKIAPANADFAFRFYYLIASETPGKNIFFSPLSISAAYAMLSLGACSHSRSQILEGLGFNLTELSESDVHRGFQHLLHTLNLPGHGLETRVGSALFLSHNLKFLAKFLNDTMAVYEAKLFHTNFYDTVGTIQLINDHVKKETRGKIVDLVSELKKDVLMVLVNYIYFKALWEKPFISSRTTPKDFYVDENTTVRVPMMLQDQEHHWYLHDRYLPCSVLRMDYKGDATVFFILPNQGKMREIEEVLTPEMLMRWNNLLRKRNFYKKLELHLPKFSISGSYVLDQILPRLGFTDLFSKWADLSGITKQQKLEASKSFHKATLDVDEAGTEAAAATSFAIKFFSAQTNRHILRFNRPFLVVIFSTSTQSVLFLGKVVDPTKP", "values": [
      {"measurement": "reduction of retinal vascular leakage", "setting": "[5]", "result": "approximately 50%"}
    ]}
  ]
}
